This note sets out measurements from ChEMBL document CHEMBL1147134, “Indium-labeled macrocyclic conjugates of naltrindole: high-affinity radioligands for in vivo studies of peripheral delta opioid receptors” (J Med Chem, 2007).

For orientation: Ki means the equilibrium dissociation constant of an inhibitor or competing ligand from its target. A high value points to weaker binding. As a reminder, the logD is the decadic logarithm of the distribution of all forms, ionised or not, between an organic phase and buffer at a given pH.

For one series, the target named is Mu-type opioid receptor (Cavia porcellus, UniProt P97266). Put plainly: Displacement of [3H]DAMGO from mu opioid receptor in guinea pig brain membranes. The format is cell membranes, Membrane. (Displacement assays read how much labelled ligand stays bound in the presence of the test substance.)
Series [1] deals with Delta-type opioid receptor (Mus musculus, UniProt P32300). Nature of the series: Displacement of [3H]NTI from delta opioid receptor in CD1 mouse brain membranes. The class given is cell membranes, Membrane.
Series [2] deals with Kappa-type opioid receptor (Cavia porcellus, UniProt P41144). Nature of the series: Displacement of [3H]U-69593 from kappa opioid receptor in guinea pig brain membranes. The class given is cell membranes, Membrane.
Series [3] in a line: Selectivity for mouse brain delta opioid receptor over guinea pig brain kappa opioid receptor.
The nature of series [4]: Selectivity for mouse brain delta opioid receptor over guinea pig brain mu opioid receptor.
Series [5] in a line: Lipophilicity, log D at pH7.4. The class given is physicochemical. The settings on record: buffer, pH 7.4.

Mu-type opioid receptor, sequence (P97266 whole entry): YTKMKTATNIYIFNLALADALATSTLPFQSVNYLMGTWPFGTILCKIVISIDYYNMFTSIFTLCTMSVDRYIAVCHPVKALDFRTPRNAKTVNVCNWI
Kappa-type opioid receptor, sequence (P41144 whole entry): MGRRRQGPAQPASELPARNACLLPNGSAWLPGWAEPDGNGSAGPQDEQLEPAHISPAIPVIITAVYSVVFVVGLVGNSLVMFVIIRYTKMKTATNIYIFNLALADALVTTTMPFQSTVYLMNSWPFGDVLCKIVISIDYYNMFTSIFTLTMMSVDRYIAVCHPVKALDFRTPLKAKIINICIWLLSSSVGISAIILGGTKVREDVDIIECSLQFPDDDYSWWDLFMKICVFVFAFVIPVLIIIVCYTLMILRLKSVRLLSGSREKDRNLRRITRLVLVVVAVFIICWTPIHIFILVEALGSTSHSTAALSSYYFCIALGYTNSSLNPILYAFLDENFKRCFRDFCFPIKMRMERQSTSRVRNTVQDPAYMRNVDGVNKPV
Delta-type opioid receptor, sequence (P32300 whole entry): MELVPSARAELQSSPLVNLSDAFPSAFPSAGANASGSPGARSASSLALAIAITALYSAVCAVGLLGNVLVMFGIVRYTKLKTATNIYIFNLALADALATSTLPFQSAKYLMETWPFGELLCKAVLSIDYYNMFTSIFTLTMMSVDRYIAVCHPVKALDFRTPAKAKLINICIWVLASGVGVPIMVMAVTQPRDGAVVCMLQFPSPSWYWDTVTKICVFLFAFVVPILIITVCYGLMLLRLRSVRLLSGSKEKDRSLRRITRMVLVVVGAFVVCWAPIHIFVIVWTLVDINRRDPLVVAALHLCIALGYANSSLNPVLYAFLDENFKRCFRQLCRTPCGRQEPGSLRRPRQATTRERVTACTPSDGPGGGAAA

For the compound `O=C(O)CN1CCN(CCn2c3c(c4ccccc42)C[C@@]2(O)[C@H]4Cc5ccc(O)c6c5[C@@]2(CCN4CC2CC2)[C@@H]3O6)CCN(CC(=O)O)CCN(CC(=O)O)CC1`, the Ki on Mu-type opioid receptor amounted to 1750 nM; in series [1], 4.9 nM; in series [2] it was 2010 nM. Also, the Ratio Ki turned out to be 410 in series [3] and 357 in series [4].

`O=C(O)CN1CCN(CCCCCn2c3c(c4ccccc42)C[C@@]2(O)[C@H]4Cc5ccc(O)c6c5[C@@]2(CCN4CC2CC2)[C@@H]3O6)CCN(CC(=O)O)CCN(CC(=O)O)CC1`: the inhibition constant Ki at Mu-type opioid receptor is 48.2 nM; in series [1], 0.2 nM; in series [2], 26.2 nM. The Ratio Ki in series [3] worked out at 131; in series [4], 241.

Turning to `Oc1ccc2c3c1O[C@H]1c4[nH]c5ccccc5c4C[C@@]4(O)[C@@H](C2)N(CC2CC2)CC[C@]314` [NALTRINDOLE], the Ki was determined as 33.9 nM on Mu-type opioid receptor and 14.9 nM in series [2]. Also, in series [5], the pH-dependent lipophilicity (logD) is 2.41.
